Reference: patent US9610285B2, “Compositions for controlling food intake and uses therefor” (UNIVERSITY OF FLORIDA RESEARCH FOUNDATION, INCORPORATED, priority 2011, dated 2017)
Structures can show the parent of a compound that is named as a salt. Marks after values point to notes of the source that are not given here.

Experiments:
Format in all cases: in vivo, rat
Male Sprague-Dawley rats [1] = assay: Standard chow intake following drug injections in binge-eating rats (Example 2); conditions: for Effect on standard chow intake, in words: one-way ANOVA over saline, low and high dose
Description: (§1) Male Sprague-Dawley rats, 250-300 g at the onset of the experiment, were obtained from Taconic Farms (Germantown, N.Y., USA). Rats were housed individually on a 12-h reversed light/dark cycle and given 1 wk to acclimate before diet training began.
(§2) The rats were divided into groups (n=10/group) matched for body weight and assigned to one of the following dietary conditions: (1) Binge Sugar, (2) Binge Fat or (3) Binge Sugar-Fat. All rats received palatable diets and standard rodent chow (LabDiet #5001, PMI Nutrition International, Richmond, Ind., USA; 10% fat, 20% protein, 70% carbohydrate, 3.02 kcal/g) for 12 h/day, starting 4 h after the onset of the dark cycle. Water was available ad libitum.
(§3) All palatable foods were mixed in the laboratory. The Binge Sugar group had access to a 10% (w/v) sucrose solution (Domino® Granulated Pure Cane Sugar, dissolved in tap water, 0.4 kcal/mL), the Binge Fat group had access to a 35% (w/v) fat emulsion (3.1 kcal/mL) and the Binge Sugar-Fat group had access to a 10% (w/v) sugar solution and 35% (w/v) fat emulsion (3.5 kcal/mL). Both emulsions were made with Wesson® Pure Vegetable Oil in tap water and 0.6% (w/v) Emplex, a commercially available emulsifier (American Ingredients Company, Kansas City, Mo., USA). Palatable food intakes were recorded daily. Chow intake was recorded weekly. Body weights were taken at the beginning and end of the 21-day diet period.
(§4) After 21 days on these diets, drug testing began. During testing, diet regimens were maintained. Approximately 3.5 h into the dark cycle, animals were weighed and intraperitoneal (i.p.) injections of drug were given (according to the schedule below). 30 min later (4 h into the dark cycle) palatable food and chow were made available to the rats. For the first 3 days, rats were acclimated to handling and daily vehicle injections (0.9% saline, Hospira, Lake Forest, Ill., USA, i.p. 1 mL/kg). For days 4-16 of drug testing, either vehicle or drug was alternatively administered, starting with drug on day 4. […] Intake of palatable food and chow was measured hourly after injection for 4 h and again at the end of the 12-h access period.
(§5) Palatable food and standard chow intakes following saline injections between days 4-16 were averaged. All data were analyzed using one-way ANOVAs with post hoc Multiple Comparisons, when appropriate. In Tables 4-7, values having the same letter superscript are statistically different from one another.

rats = assay: Binge eating rats, palatable food and chow intake (Example 1, FIGS. 1-5); conditions: drug alone, i.p., figure legends
Description: Baclofen (at 1.0 and 1.8 mg/kg, administered i.p.)
Baclofen+naltrexone (mixed low and mixed high)
1. Binge Sugar (10% sucrose solution, w/v)
2. Binge Fat (35% oil emulsion, w/v)
3. Binge Sugar/Fat (10% sucrose, 35% oil emulsion, w/v)
Groups of animals (rats) were maintained on their diets for 3 weeks to establish stable binge eating behavior. After this period of time, the rats were administered three days of daily i.p. injections of saline (to acclimate to the injection procedure), and sugar/chow intake was measured after the first hour of access and then hourly for the next 3 hours, as well as at the end of the 12-h access period. After this three-day period, rats were given baclofen+naloxone, and measurements taken as described above. Other dosage amounts of baclofen and naloxone were tested, as were the effects of these compounds alone (with measurements being performed as described above). Vehicle injections were performed between the various tests in order to allow for suitable clearance of compounds from the animals. […] Thus, the treatment appears ideally suited for food addicts, hedonic overeaters and changes food choice but not appetite.

Male Sprague-Dawley rats [2] = assay: Palatable food intake following drug injections in binge-eating rats (Example 2); conditions: for Effect on palatable food (fat) intake, in words / Effect on palatable food (sugar) intake, in words / Effect on palatable food (sugar-fat) intake, in words: one-way ANOVA over saline, low and high dose
Description: as §1, §2, §3, §4, §5

Male Sprague-Dawley rats [3] = assay: Total caloric intake following drug injections in binge-eating rats (Example 2); conditions: for Effect on total caloric intake, in words: one-way ANOVA over saline, low and high dose
Description: as §1, §2, §3, §4, §5

[4] = Binge Fat group, 1 h, high dose (naltrexone 1.0 mg/kg, baclofen 1.8 mg/kg, or both, i.p.)
[5] = Binge Fat group, 1 h, low dose (naltrexone 0.1 mg/kg, baclofen 1.0 mg/kg, or both, i.p.)
[6] = Binge Fat group, 12 h, high dose (naltrexone 1.0 mg/kg, baclofen 1.8 mg/kg, or both, i.p.)
[7] = Binge Fat group, 12 h, low dose (naltrexone 0.1 mg/kg, baclofen 1.0 mg/kg, or both, i.p.)
[8] = Binge Sugar group, 1 h, high dose (naltrexone 1.0 mg/kg, baclofen 1.8 mg/kg, or both, i.p.)
[9] = Binge Sugar group, 1 h, low dose (naltrexone 0.1 mg/kg, baclofen 1.0 mg/kg, or both, i.p.)
[10] = Binge Sugar group, 12 h, high dose (naltrexone 1.0 mg/kg, baclofen 1.8 mg/kg, or both, i.p.)
[11] = Binge Sugar group, 12 h, low dose (naltrexone 0.1 mg/kg, baclofen 1.0 mg/kg, or both, i.p.)
[12] = Binge Sugar-Fat group, 1 h, high dose (naltrexone 1.0 mg/kg, baclofen 1.8 mg/kg, or both, i.p.)
[13] = Binge Sugar-Fat group, 1 h, low dose (naltrexone 0.1 mg/kg, baclofen 1.0 mg/kg, or both, i.p.)
[14] = Binge Sugar-Fat group, 12 h, high dose (naltrexone 1.0 mg/kg, baclofen 1.8 mg/kg, or both, i.p.)
[15] = Binge Sugar-Fat group, 12 h, low dose (naltrexone 0.1 mg/kg, baclofen 1.0 mg/kg, or both, i.p.)

For `O=C1CC[C@@]2(O)[C@H]3Cc4ccc(O)c5c4[C@@]2(CCN3CC2CC2)[C@H]1O5` [Naltrexone, naltrexone hydrochloride], the “1-H Chow Intake” value (Male Sprague-Dawley rats [1]; [4]) was 10.1 ± 1.2 kcal, the “1-H Chow Intake” value (Male Sprague-Dawley rats [1]; [5]) was 8.5 ± 1.1 kcal and the “12-H Chow Intake” value (Male Sprague-Dawley rats [1]; [6]) was 37.0 ± 3.4 kcal. For the same compound, the “12-H Chow Intake” value (Male Sprague-Dawley rats [1]; [7]) was 34.1 ± 4.3 kcal, the “1-H Chow Intake” value (Male Sprague-Dawley rats [1]; [8]) was 20.1 ± 1.3 kcal and the “1-H Chow Intake” value (Male Sprague-Dawley rats [1]; [9]) was 25.5 ± 3.2 kcal. The “12-H Chow Intake (Kcal)” value (Male Sprague-Dawley rats [1]; [10]) was 78.6 ± 4.7^b Kcal, the “12-H Chow Intake (Kcal)” value (Male Sprague-Dawley rats [1]; [11]) was 73.7 ± 5.1^a Kcal and the “1-H Chow Intake” value (Male Sprague-Dawley rats [1]; [12]) was 7.1 ± 0.9 kcal. For the same compound, the “1-H Chow Intake” value (Male Sprague-Dawley rats [1]; [13]) was 6.6 ± 1.0 kcal, the “Effect on standard chow intake, in words” value (Male Sprague-Dawley rats [1]; Binge Sugar-Fat group, 1 h) was “no effect” and the “12-H Chow Intake” value (Male Sprague-Dawley rats [1]; [14]) was 27.4 ± 2.6 kcal. For the same compound, the “12-H Chow Intake” value (Male Sprague-Dawley rats [1]; [15]) was 26.4 ± 1.9 kcal, the “Effect on standard chow intake, in words” value (Male Sprague-Dawley rats [1]; Binge Sugar-Fat group, 12 h) was “no effect” and the “Effect on standard chow intake, in words” value (Male Sprague-Dawley rats [1]; Fat group, 1 h) was “no effect”. For the same compound, the “Effect on standard chow intake, in words” value (Male Sprague-Dawley rats [1]; Fat group, 12 h) was “no effect”, the “Effect on standard chow intake, in words” value (Male Sprague-Dawley rats [1]; Sugar group, 1 h) was “no effect” and the “Effect on standard chow intake, in words” value (Male Sprague-Dawley rats [1]; Sugar group, 12 h) was “stimulated chow intake”. The “Effect on intake of oil-containing palatable foods” value (rats; oil containing groups (Binge Fat, Binge Sugar/Fat)) was “trend toward reducing food intake”, the “Effect on binge eating of sugar” value (rats; sugar-binging rats) was “no effect” and the “1-H Palatable Food Intake” value (Male Sprague-Dawley rats [2]; [4]) was 9.9 ± 2.0 kcal. The “Palatable food intake as a percent of intake after saline injections, 1-H Intake (%)” value (Male Sprague-Dawley rats [2]; [4]) was 59%, the “Palatable food intake as a percent of intake after saline injections, 1-H Intake (%)” value (Male Sprague-Dawley rats [2]; [5]) was 70% and the “Effect on palatable food (fat) intake, in words” value (Male Sprague-Dawley rats [2]; Binge Fat group, 1 h) was “no significant effect”. The “12-H Palatable Food Intake” value (Male Sprague-Dawley rats [2]; [6]) was 53.3 ± 4.5 kcal, the “Palatable food intake as a percent of intake after saline injections, 12-H Intake (%)” value (Male Sprague-Dawley rats [2]; [6]) was 91% and the “12-H Palatable Food Intake” value (Male Sprague-Dawley rats [2]; [7]) was 49.9 ± 3.6 kcal. The “Palatable food intake as a percent of intake after saline injections, 12-H Intake (%)” value (Male Sprague-Dawley rats [2]; [7]) was 85%, the “Effect on palatable food (fat) intake, in words” value (Male Sprague-Dawley rats [2]; Binge Fat group, 12 h) was “no significant effect” and the “1-H Palatable Food Intake (Kcal)” value (Male Sprague-Dawley rats [2]; [8]) was 2.6 ± 0.4^a Kcal. For the same compound, the “Palatable food intake as a percent of intake after saline injections, 1-H Intake (%)” value (Male Sprague-Dawley rats [2]; [8]) was 92%, the “1-H Palatable Food Intake (Kcal)” value (Male Sprague-Dawley rats [2]; [9]) was 4.4 ± 0.7^a Kcal and the “Palatable food intake as a percent of intake after saline injections, 1-H Intake (%)” value (Male Sprague-Dawley rats [2]; [9]) was 158%. The “Effect on palatable food (sugar) intake, in words” value (Male Sprague-Dawley rats [2]; Binge Sugar group, 1 h) was “significantly decreased”, the “12-H Palatable Food Intake (Kcal)” value (Male Sprague-Dawley rats [2]; [10]) was 10.8 ± 1.8^r Kcal and the “Palatable food intake as a percent of intake after saline injections, 12-H Intake (%)” value (Male Sprague-Dawley rats [2]; [10]) was 85%. For the same compound, the “12-H Palatable Food Intake (Kcal)” value (Male Sprague-Dawley rats [2]; [11]) was 18.7 ± 2.4^r Kcal, the “Palatable food intake as a percent of intake after saline injections, 12-H Intake (%)” value (Male Sprague-Dawley rats [2]; [11]) was 92% and the “Effect on palatable food (sugar) intake, in words” value (Male Sprague-Dawley rats [2]; Binge Sugar group, 12 h) was “significantly decreased”. The “1-H Palatable Food Intake” value (Male Sprague-Dawley rats [2]; [12]) was 17.6 ± 3.5 kcal, the “Palatable food intake as a percent of intake after saline injections, 1-H Intake (%)” value (Male Sprague-Dawley rats [2]; [12]) was 75% and the “1-H Palatable Food Intake” value (Male Sprague-Dawley rats [2]; [13]) was 17.3 ± 1.7 kcal. The “Palatable food intake as a percent of intake after saline injections, 1-H Intake (%)” value (Male Sprague-Dawley rats [2]; [13]) was 74%, the “Effect on palatable food (sugar-fat) intake, in words” value (Male Sprague-Dawley rats [2]; Binge Sugar-Fat group, 1 h) was “no effect” and the “12-H Palatable Food Intake” value (Male Sprague-Dawley rats [2]; [14]) was 83.3 ± 8.1 kcal. The “Palatable food intake as a percent of intake after saline injections, 12-H Intake (%)” value (Male Sprague-Dawley rats [2]; [14]) was 109%, the “12-H Palatable Food Intake” value (Male Sprague-Dawley rats [2]; [15]) was 70.6 ± 3.4 kcal and the “Palatable food intake as a percent of intake after saline injections, 12-H Intake (%)” value (Male Sprague-Dawley rats [2]; [15]) was 92%. The “Effect on palatable food (sugar-fat) intake, in words” value (Male Sprague-Dawley rats [2]; Binge Sugar-Fat group, 12 h) was “no effect”, the “1-H Total Caloric Intake” value (Male Sprague-Dawley rats [3]; [4]) was 19.9 ± 3.2 kcal and the “1-H Total Caloric Intake” value (Male Sprague-Dawley rats [3]; [5]) was 20.2 ± 3.0 kcal. For the same compound, the “12-H Total Caloric Intake” value (Male Sprague-Dawley rats [3]; [6]) was 90.3 ± 8.3 kcal, the “12-H Total Caloric Intake” value (Male Sprague-Dawley rats [3]; [7]) was 84.0 ± 7.9 kcal and the “1-H Total Caloric Intake” value (Male Sprague-Dawley rats [3]; [8]) was 22.6 ± 1.7 kcal. The “1-H Total Caloric Intake (Kcal)” value (Male Sprague-Dawley rats [3]; [9]) was 29.9 ± 3.9^a Kcal, the “12-H Total Caloric Intake” value (Male Sprague-Dawley rats [3]; [10]) was 89.4 ± 6.4 kcal and the “12-H Total Caloric Intake” value (Male Sprague-Dawley rats [3]; [11]) was 85.4 ± 7.5 kcal. The “1-H Total Caloric Intake” value (Male Sprague-Dawley rats [3]; [12]) was 24.8 ± 4.4 kcal, the “1-H Total Caloric Intake” value (Male Sprague-Dawley rats [3]; [13]) was 23.9 ± 2.7 kcal and the “12-H Total Caloric Intake” value (Male Sprague-Dawley rats [3]; [14]) was 110.7 ± 10.7 kcal. For the same compound, the “12-H Total Caloric Intake” value (Male Sprague-Dawley rats [3]; [15]) was 97.0 ± 5.7 kcal, the “Effect on total caloric intake, in words” value (Male Sprague-Dawley rats [3]; Fat group, 1 h) was “no effect” and the “Effect on total caloric intake, in words” value (Male Sprague-Dawley rats [3]; Fat group, 12 h) was “no effect”. The “Effect on total caloric intake, in words” value (Male Sprague-Dawley rats [3]; Sugar group, 1 h) was “significantly increased”, the “Effect on total caloric intake, in words” value (Male Sprague-Dawley rats [3]; Sugar group, 12 h) was “differences were no longer evident” and the “Effect on total caloric intake, in words” value (Male Sprague-Dawley rats [3]; Sugar-Fat group, 1 h) was “no effect”. The “Effect on total caloric intake, in words” value (Male Sprague-Dawley rats [3]; Sugar-Fat group, 12 h) was “no effect”.
